In US20240058291A1, “COMPOSITION FOR CONTROLLING SUGAR, CONTAINING ATYPICAL PKC ACTIVATOR” (INDUSTRY-ACADEMIC COOPERATION FOUNDATION, YONSEI UNIVERSITY, priority 2021, published 2024):

Assays:
IEC-18 cells [1] = assay: Glucose uptake with and without PKC zeta inhibitor ZIP, IEC-18 cells; format: cell-based; conditions: 100 nM
C57BL6 mice [2] = assay: IP glucose tolerance test after single subcutaneous injection; format: in vivo; conditions: 2 g/kg glucose
Experimental: After 12 C57BL6 mice were fasted for 12 hours, fasting blood glucose was measured by performing an intraperitoneal glucose test. Thereafter, ingenol (4 μg/kg) and prostratin (1 mg/kg) was injected subcutaneously once into the ingenol-administered group (4 mice) and the prostratin-administered group, respectively, and 2 g of glucose per kg of mouse (2 g/kg glucose) was diluted in physiological saline and intraperitoneally administered to each mouse. Thereafter, an IP glucose tolerance test was performed at 15 minutes, 30 minutes, 60 minutes, 90 minutes, and 120 minutes.

IEC-6 cells [3] = assay: Intracellular glucose (2-DG) uptake, IEC-6 cells; format: cell-based; conditions: 100 nM
Experimental: (§1) IEC-6 cells and IEC-18 cells were treated with each of prostratin and ingenol (100 nM) for 10 minutes, and then uptake of 2-deoxy-D-glucose (2-DG) in the collected cell lysates was analyzed. By measuring the glucose concentration, changes in glucose uptake (2-DG uptake) by treatment with each of prostratin and ingenol were determined. The amount of glucose was measured after treatment with each of prostratin and ingenol in a low-concentration glucose medium and serum-free DMEM for 24 hours. Glucose levels in the IEC-6 and IEC-18 cells were detected using a Glucose Assay Kit (Cayman Chemical) according to the manufacturer's instructions. Absorbance signals were measured with a Gen5 spectrophotometer (BioTek, Winooski, VT, USA).

IEC-18 cells [4] = assay: Western blot of GLUT transporters after treatment, IEC-18 cells; format: cell-based; conditions: for GLUT1 phosphorylation: 30, 100 and 300 nM, 30 minutes, Western blot; for expression of p-GLUT1 and GLUT1: compared to Na/K ATPase
Experimental: (§2) For culture of IEC-6 cells (ATCC CRL-1592) and IEC-18 cells (ATCC CRL-1589), which are intestinal epithelial cells, the cells were cultured using Dulbecco's modified Eagle medium (DMEM) supplemented with 10% fetal bovine serum (FBS) and penicillin-streptomycin at 37° C. in a humidified atmosphere containing 10% CO2 and 90% air, and were subcultured every 3 to 4 days. […] When the cell density reached 1.5×10^5 cells/cm^2 after 6 days, the cultures were collected and used. Prostratin was purchased from Sigma-Aldrich (Cat. No. P0077) and used. Ingenol was purchased from Sigma-Aldrich (Cat. No. SML1318) and used. IEC-6 cells and IEC-18 cells were treated with each of prostratin and ingenol at 30 nM, 100 nM, and 300 nM for 30 minutes, cell lysates were collected, and protein expression levels thereof were analyzed by Western blotting. Western blot analysis was performed as follows. Total cell protein lysates were prepared and subjected to Western blot analysis according to standard procedures. Briefly, cells were chilled on ice, washed twice with ice-cold phosphate-buffered saline, and lysed in buffer containing 1 mM. phenylmethylsulfonyl fluoride and lx protease inhibitor (Sigma-Aldrich). Protein concentration was measured with a Bradford assay kit (Bio-Rad, Hercules, CA, USA). Equal amounts of protein from the cell lysates were resolved by sodium dodecyl sulfate polyacrylamide gel electrophoresis and transferred to membranes which were then incubated with anti-PKCα (Cell Signaling Technology, USA), anti-PKCδ (Cell Signaling Technology, USA), anti-PKCζ (Cell Signaling Technology, USA), anti-p-GLUT1 (Abcam, GB), anti-GLUT1 (Abcam, GB) and anti-GLUT2 (Novus Biological, USA) as primary antibodies overnight at 4° C. The blots were washed 3 times with TBST (Tris-buffered saline containing 0.05% Tween 20) and then incubated with horseradish peroxidase (HRP)-conjugated secondary antibodies for 1 hour at 25° C. As the secondary antibodies, donkey anti-rabbit IgG-HRP antibody (1:5000, Santa Cruz) and donkey anti-mouse IgG-HRP antibody (1:5000, Santa Cruz) were used. Immunoreactivity was detected with SuperSignal West Pico Chemiluminescent Substrate (Thermo Fisher Scientific, MA, USA).

HEK293 = assay: Western blot of PKC zeta, p-GLUT1 and GLUT1 with ingenol, HEK293 cells; format: cell-based; conditions: vs empty vector negative control
Experimental: (§3) Transfected cell lines were generated by transfection such that PKC zeta was transiently overexpressed in IEC-6 cells, IEC-18 cells, and HEK293 (ATCC CRL-1573) cells. A rat PKC zeta-expressing plasmid (Korea Gene Bank) was subcloned into pCDNA3.1 (Addgene, USA). […] Cells were transfected with the expression plasmid using Polyjet transfection reagent (SignaGen) according to the manufacturer's instructions. Transfected cells were cultured for 48 hours at 37° C. before lysis and treated with ingenol (0.1 μM). Cell lysates were collected for the empty vector-infected cell group as a control group, the PKC zeta-transfected cell group, the wild-type cell group treated with ingenol, and the transfected cell group treated with ingenol, and subjected to Western blotting. In Western blotting, Na/K ATPase was used as a membrane loading control.

IEC-18 cells [5] = assay: Western blot of PKC zeta, p-GLUT1 and GLUT1 with ingenol, IEC-18 cells; format: cell-based; conditions: ingenol 0.1 μM, vs empty vector negative control
Experimental: as §3

IEC-18 cells [6] = assay: Intracellular glucose (2-DG) uptake, IEC-18 cells; format: cell-based; conditions: 100 nM
Experimental: as §1

db/db mice [7] = assay: Intraperitoneal glucose tolerance test (IPGTT) in diabetic model mice on day 17; format: in vivo
Experimental: Each of prostratin (0.5 mg/kg) and ingenol (1 μg/kg) was intraperitoneally injected daily for 40 days into db/db mice (Jackson Laboratory), known as a representative diabetes model due to deficiency of the leptin receptor, and then the body weight of each mouse was measured. On day 17 after drug administration, an intraperitoneal glucose tolerance test (IPGTT) was performed. […] In the group to which 1 μg/kg of ingenol was administered, the glucose improvement effect appeared at 240 minutes after glucose administration.

db/db mice [8] = assay: Body weight in diabetic model mice, daily intraperitoneal injection for 40 days; format: in vivo
Experimental: Each of prostratin (0.5 mg/kg) and ingenol (1 μg/kg) was intraperitoneally injected daily for 40 days into db/db mice (Jackson Laboratory), known as a representative diabetes model due to deficiency of the leptin receptor, and then the body weight of each mouse was measured.

IEC-6 cell line [9] = assay: 2DG uptake after PKC siRNA transfection; format: cell-based; conditions: prostratin 1 μM or ingenol 100 nM
Experimental: In order to identify which PKC subtypes induce increased glucose uptake (2DG uptake) in IEC cells by treatment with each of prostratin and ingenol, the IEC-6 cell line was transfected with siRNA for each of conventional PKC (PKCα), novel PKC ([…]), and atypical PKCs (PKCζ and […]) as described in Example 7. After 48 hours, the cells were treated with prostratin (1 μM) or ingenol (100 nM), and 2DG uptake therein was analyzed.

IEC-6 cells [10] = assay: Western blot of PKC zeta, p-GLUT1 and GLUT1 with ingenol, IEC-6 cells; format: cell-based; conditions: ingenol 0.1 μM, vs empty vector negative control
Experimental: as §3

IEC-18 cells [11] = assay: Western blot of PKC and GLUT1 activation over time, IEC-18 cells; format: cell-based; conditions: prostratin 2 μM; for activities of PKC zeta and GLUT1: ingenol 0.1 μM, 0, 15 and 60 minutes
Experimental: After treatment of IEC-18 cells with each of prostratin (2 μM) and ingenol (0.1 μM) for 0, 15, and 60 minutes, the expression of PKC and GLUT1 proteins was analyzed by Western blotting.

IEC-6 cells [12] = assay: Western blot of GLUT transporters after treatment, IEC-6 cells; format: cell-based; conditions: for GLUT1 phosphorylation: 30, 100 and 300 nM, 30 minutes, Western blot; for expression of p-GLUT1 and GLUT1: compared to Na/K ATPase
Experimental: as §2

IEC-6 cells [13] = assay: Glucose uptake with and without PKC zeta inhibitor ZIP, IEC-6 cells; format: cell-based; conditions: 100 nM
db/db mice [14] = assay: 18FDG absorption and excretion in intestines of diabetic model mice; format: in vivo; conditions: 0.5 mg/kg for 1 month
Experimental: The intestines of db/db mice (Jackson Laboratory) to which 0.5 mg/kg of prostratin had been administered for 1 month were harvested and radiographed for 18FDG (fluorodeoxyglucose, DuChemBio). 18FDG was purchased from DuChemBio and 200 μCi was injected into each mouse via the tail vein. In addition, 18FDG in a fecal sample obtained by washing the harvested small intestine with 5 mL of PBS was measured, and 18FDG uptake of the duodenum, jejunum, and ileum of the small intestine was measured with a gamma counter.

db/db mice [15] = assay: Electron microscopy of apical membrane of jejunum lumen of diabetic model mice; format: in vivo; conditions: 0.5 mg/kg for 1 month, electron microscope
C57BL6 mice [16] = assay: IP glucose tolerance test after 2 weeks of administration by osmotic pump; format: in vivo; conditions: 0.5 mg/kg and 1 mg/kg for 2 weeks, 2 g/kg glucose
Experimental: Prostratin was administered to C57BL6 mice at concentrations of 0 mg/kg, 0.5 mg/kg, and 1 mg/kg for 2 weeks using an osmotic pump, followed by fasting for 12 hours. Then, 2 g of glucose per kg of mouse (2 g/kg glucose) was diluted in physiological saline and intraperitoneally administered to each mouse. Thereafter, an IP glucose tolerance test was performed at 15 minutes, 30 minutes, 60 minutes, 90 minutes, and 120 minutes.

IEC-6 cell line [17] = assay: Western blot of p-GLUT1 after PKC siRNA transfection and prostratin treatment; format: cell-based; conditions: prostratin 1 μM
Experimental: To identify which PKC subtypes induce GLUT1 activation by each of prostratin and ingenol, the IEC-6 cell line was transfected with 50 nM of siRNA for each of conventional PKC (PKCα), novel PKC ([…]), and atypical PKCs (PKCζ and […]) using RNAiMax (Invitrogen). After 48 hours, the cells were treated with prostratin (1 μM), and total protein was extracted and subjected to Western blotting. The siRNA sequences used are as follows.

human pancreatic tumors = conditions: orally administered; cited from earlier work
db/db mice [18] = assay: Immunohistochemical staining of PKC zeta in small intestine of diabetic model mice; format: in vivo; conditions: 0.5 mg/kg for 1 month
Experimental: After administration of prostratin (0.5 mg/kg) or vehicle to db/db mice for 1 month, the small intestine was harvested, and the duodenum, jejunum, and ileum were fixed with formalin, subjected to immunohistochemical staining with anti-PKC zeta antibody (Abcam, USA), and imaged with an optical microscope at 100× and 400× magnifications.

[19] = atypical PKC (PKCζ and PKC↓)-knockdown group

C/C=C(/C)C(=O)O[C@H]1C(C)=C[C@]23C(=O)[C@@H](C=C(CO)[C@@H](O)[C@]12O)[C@H]1[C@@H](C[C@H]3C)C1(C)C [ingenol-3-angelate]
6-phosphate glucose in the cells (IEC-18 cells [1]): increased
glucose metabolism (IP glucose tolerance test) compared to negative control (C57BL6 mice [2]; ingenol 4 μg/kg subcutaneously once): improved
intracellular glucose (2-DG) uptake (IEC-6 cells [3]): increased
GLUT1 phosphorylation (IEC-18 cells [4]): promoted
expression of p-GLUT1 and GLUT1 (IEC-18 cells [4]): increased
GLUT1 translocation (HEK293): translocated
PKC zeta activation and translocation to the cell membrane (HEK293): activated and translocated to the cell membrane
GLUT1 translocation (IEC-18 cells [5]): translocated
PKC zeta activation and translocation to the cell membrane (IEC-18 cells [5]): activated and translocated to the cell membrane
intracellular glucose (2-DG) uptake (IEC-18 cells [6]): increased
glucose improvement effect (IPGTT) (db/db mice [7]; ingenol 1 μg/kg, at 240 minutes after glucose administration): appeared
weight loss (db/db mice [8]; ingenol 1 μg/kg i.p. daily, increased to 2 μg/kg on day 28, day 30): showed statistical significance
2DG uptake (IEC-6 cell line [9]; [19]): not increased
2DG uptake (IEC-6 cell line [9]; negative control group (siNeg)): increased
GLUT1 translocation (IEC-6 cells [10]): translocated
PKC zeta activation and translocation to the cell membrane (IEC-6 cells [10]): activated and translocated to the cell membrane
activities of PKC zeta and GLUT1 (IEC-18 cells [11]): increased
GLUT1 phosphorylation (IEC-6 cells [12]): promoted
expression of p-GLUT1 and GLUT1 (IEC-6 cells [12]): increased
6-phosphate glucose in the cells (IEC-6 cells [13]): increased

CC(=O)O[C@@]12C[C@@H](C)[C@@]3(O)[C@@H](C=C(CO)C[C@]4(O)C(=O)C(C)=C[C@@H]34)[C@@H]1C2(C)C [prostratin]
6-phosphate glucose in the cells (IEC-18 cells [1]): increased
glucose absorption in duodenum, jejunum and ileum (18FDG, gamma counter) (db/db mice [14]): more than doubled
glucose absorption in the small intestine (18FDG radiographs) vs vehicle group (db/db mice [14]): significantly higher
glucose excretion in the fecal samples (18FDG) (db/db mice [14]): higher
glucose metabolism (IP glucose tolerance test) compared to Vehicle (C57BL6 mice [2]; prostratin 1 mg/kg subcutaneously once, at 30 and 60 minutes): significantly improved
glycocalyx near the microvilli of the jejunum vs vehicle (db/db mice [15]): secreted more
number of mitochondria in the small intestine cells (db/db mice [15]): increased
area values under the glucose change curve for 2 hours (C57BL6 mice [16]): improved
intracellular glucose (2-DG) uptake (IEC-6 cells [3]): increased
expression of GLUT1 (p-GLUT1) (IEC-6 cell line [17]; negative control group (siNeg)): increased
expression of GLUT1 (p-GLUT1) (IEC-6 cell line [17]; siRNA for atypical PKCs (PKCζ and PKC↓)): did not increase
GLUT1 phosphorylation (IEC-18 cells [4]): promoted
expression of p-GLUT1 and GLUT1 (IEC-18 cells [4]): increased
intracellular glucose (2-DG) uptake (IEC-18 cells [6]): increased
effect on human pancreatic tumors (human pancreatic tumors): inhibited
glucose improvement (IPGTT) vs vehicle group (db/db mice [7]; prostratin 0.5 mg/kg, entire period of 30 to 240 minutes): superior to that in the control group
weight loss compared to vehicle group (db/db mice [8]; prostratin 0.5 mg/kg i.p. daily, on and after day 11): showed statistical significance
2DG uptake (IEC-6 cell line [9]; [19]): not increased
2DG uptake (IEC-6 cell line [9]; negative control group (siNeg)): increased
PKC zeta staining in the duodenum vs vehicle (db/db mice [18]): no significant difference
location of PKC zeta in the jejunum and ileum (db/db mice [18]): tended to be concentrated in the apical membrane of the lumen
translocation of PKC and GLUT1 to the cell membrane, prostratin compared with ingenol (IEC-18 cells [11]; ingenol 0.1 μM): more rapidly translocated
activities of PKC zeta and GLUT1 (IEC-18 cells [11]): increased
GLUT1 phosphorylation (IEC-6 cells [12]): promoted
expression of p-GLUT1 and GLUT1 (IEC-6 cells [12]): increased
6-phosphate glucose in the cells (IEC-6 cells [13]): increased
